The record followed here is US20240148701A1, “WOULD HEALING METHODS” (The University of Sydney, priority 2021, published 2024).

One test deals with superoxide. Nature of the test: Superoxide generation by lucigenin enhanced chemiluminescence in hind limb tissue. It counts as in vivo, mouse. Particulars: after 14 days of infusion. As for the experimental part:
Hind limb tissue including the gastrocnemius and adductor muscles were isolated and collected at 14 or 28 days. Tissues were separated and implanted in OCT or placed in cryovials and snap-frozen in liquid nitrogen or were fixed in 10% formalin for 24-hours and then moved to 70% ethanol for storage.
Frozen adductor tissue was prepared for lucigenin-enhanced chemiluminescence assay by homogenising in lysis buffer (250 mM sucrose in phosphate-buffered saline (mM: 129 NaCl, 7 Na2HPO4, 3 NaH2PO4·2H2O, pH 7.4, with protease inhibitors (cOmplete™ EDTA-free, Roche Diagnostics). Sample was added to opaque 96-well plates in the presence of lucigenin (20 μmol/1 N,N′-Dimethyl-9,9′-biacridinium dinitrate) and NADPH (100 μM; β-Nicotinamide adenine dinucleotide 2′-phosphate reduced tetrasodium salt hydrate). The reaction was conducted at room temperature and tracked using a luminometer (Veritas, Turner Biosystems, USA) with an average measurement taken from 20 cycles, as described in Bubb et al., (2018, Microcirulation, e12501). Replicates of each sample were treated with manganese TMPyP (Merck Millipore, Australia, a cell-permeable superoxide dismutase mimetic, 30 μmol/L), during the assay and any signal was subtracted from the total signal as non-superoxide background signal. Superoxide production was normalized to protein concentration or cell count.

The next test deals with HUVECs. As to the kind of experiment: Tubule formation in HUVECs on reduced growth factor extracellular matrix. Particulars: 10 and 100 ng/ml compared to the control. It counts as cell-based, human. The method, then: Human umbilical vein endothelial cells (HUVECs; Lonza C2519AS, pooled source, Australia) were grown using standard cell culture conditions in endothelial cell growth medium (EGM Plus®, containing 2% fetal bovine serum, Lonza, Australia). All cells were regularly confirmed to be mycoplasma negative. Two different pooled source cell lines were used in experiments and all were used within passages 2-4. Human adult dermal microvascular endothelial cells were also obtained from Lonza (CC-2543, Lonza Australia) and cultured as above but using endothelial growth medium 2-MV bulletkit. Endothelial colony forming cells (ECFCs) were derived from the peripheral blood of participants in the BioHEART study. This registered study (ACTRN12618001322224) complies with the Declaration of Helsinki and the study protocol and design has been approved by the Northern Sydney Local Health District Human Research Ethics Committee (HREC/17/HAWKE/343). […]
Once they were ˜70% confluent, cells were re-suspended in diluted EGM Plus® (1:3) and plated on reduced-growth factor extracellular matrix (15 mg/ml, Cultrex, Trevigen, USA) at a density of 1.5×10^4 cells/cm^2. […] Cells were incubated in an EVOS FL Auto Imaging system for 16 hours and tubule formation recorded every hour. Optimal tube formation occurred at the 8-hour timepoint; tubule number at this point was quantified manually using NIH Image J software. […]

In another test the test system is CD31. Nature of the test: CD31 histological analysis of hind limbs post-ischemia. It counts as in vivo, mouse. The conditions noted are these: both type 1 diabetes and non-diabetic mice. As for the experimental part:
Formalin fixed paraffin-embedded gastrocnemius was cut into 4 μm sections and then sections were deparaffinized. Heat retrieval was performed with Tris-EDTA buffer at pH 9. Slides were incubated overnight with a rabbit polyclonal CD31 antibody (dilution 1:200, Abcam Ltd, Australia) followed by horseradish peroxidase anti-rabbit Envision system (Dako Cytochemistry, Tokyo, Japan). Staining was developed with 3.3 diaminobenzidine tetrahydrochloride (Dako Cytochemistry, Tokyo, Japan) and counterstained with Mayer's hematoxylin stain. Rabbit IgG negative controls (Dako Cytochemistry, Tokyo, Japan) were used. A total of ten non-overlapping images for each gastrocnemius were taken with a light microscope (Leica, DM750 linked to an ICC50 E camera module). Images were taken at ×40 and analyzed with National Institute of Health Image J 1.51j8 software.

`C[C@H](Cc1ccc2c(c1)OC(C(=O)[O-])(C(=O)[O-])O2)NC[C@H](O)c1cccc(Cl)c1.[Na+].[Na+]` [CL 316,243]: in the test with superoxide, the “superoxide bioavailability in the ischemic limb” value is given as “significantly lower”. Further, in the test on HUVECs, the “number of tubules formed” value was “significantly increased”. Further, the “CD31+ staining in ischemic hindlimbs (vascularization)” value with CD31 is recorded as “greater CD31+ staining”.
